Measured values reported in patent US20130109682A1, “CYCLIC ETHER COMPOUNDS USEFUL AS KINASE INHIBITORS” (NOVARTIS AG, priority 2010, published 2013).

Tests used:
Type in all cases: biochemical
PIM2 = PIM2 (Homo sapiens, UniProt Q9P1W9); assay: KinaseGlo Pim2 ATP depletion assay
Method in brief: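 Luminescent ATP-depletion read-out of PIM2 phosphorylating BAD peptide (RSRHSSYPAGT-OH). Final conditions: 5 nM PIM2, 4 μM ATP, 10 μM peptide, 2.5% DMSO in 50 mM HEPES pH 7.5, 5 mM MgCl2, 1 mM DTT, 0.05% BSA. Enzyme–peptide preincubated 15 min with compound; reaction run to ~50% ATP depletion.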

PIM3 [1] = target: T1, PIM3 (Homo sapiens, UniProt Q86V86); assay: KinaseGlo Pim3 ATP depletion assay
Method in brief: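 Kinase was preincubated 15 min with BAD peptide in HEPES pH 7.5/MgCl2/DTT/BSA before ATP was added. Final concentrations were 40 μM ATP, 100 μM BAD peptide and 2.5% DMSO, with 5 nM enzyme. The reaction ran to ~50% ATP depletion and remaining ATP was read by KinaseGlo Plus luminescence.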

PIM1 = PIM1 (Homo sapiens, UniProt P11309); assay: Pim 1 AlphaScreen assay (high ATP); conditions: read-out: Pim1 IC50
Method in brief: (§1)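 This is a bead-based AlphaScreen run at high ATP (11-125× Km) with biotin-Bad peptide (100 nM in the substrate mix), in 50 mM Hepes pH 7.5, 5 mM MgCl2, 0.05% BSA, 0.01% Tween-20, 1 mM DTT and 2.5% DMSO final. After ~2 h the reaction was stopped with EDTA. Phospho-peptide was detected overnight with anti-phospho Ser/Thr antibody on Protein A and streptavidin beads, giving IC50.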

PIM3 [2] = target: T1, PIM3; assay: Pim 3 AlphaScreen assay (high ATP); conditions: read-out: Pim3 IC50
Method in brief: as §1

PIM2, sequence (Q9P1W9 whole entry): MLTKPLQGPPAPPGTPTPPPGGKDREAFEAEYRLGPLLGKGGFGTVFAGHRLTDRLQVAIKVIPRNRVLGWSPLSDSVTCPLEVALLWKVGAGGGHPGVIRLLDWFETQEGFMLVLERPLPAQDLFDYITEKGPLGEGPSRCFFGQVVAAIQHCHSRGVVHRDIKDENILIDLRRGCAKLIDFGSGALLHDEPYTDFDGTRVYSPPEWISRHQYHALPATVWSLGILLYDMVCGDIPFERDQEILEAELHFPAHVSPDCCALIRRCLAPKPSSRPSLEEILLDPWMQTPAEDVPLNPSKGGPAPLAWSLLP
PIM1, sequence (P11309 whole entry): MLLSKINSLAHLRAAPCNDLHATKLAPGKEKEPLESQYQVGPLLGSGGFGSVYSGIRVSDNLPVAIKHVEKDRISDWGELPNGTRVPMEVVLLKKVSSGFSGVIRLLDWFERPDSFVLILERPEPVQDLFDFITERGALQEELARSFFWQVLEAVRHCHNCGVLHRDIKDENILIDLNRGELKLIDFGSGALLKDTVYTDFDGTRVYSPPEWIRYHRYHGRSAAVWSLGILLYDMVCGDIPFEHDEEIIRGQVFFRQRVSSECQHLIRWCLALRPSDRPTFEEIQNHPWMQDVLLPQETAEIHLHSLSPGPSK

Row | IC50 (PIM2) [nM] | IC50 (PIM3 [1]) [nM] | IC50 (PIM1) [nM] | IC50 (PIM3 [2]) [nM] | Compound
1 | 2.4 | 2.3 |  |  | N[C@@H]1C[C@H](c2ccncc2NC(=O)c2ccc(F)c(-c3c(F)cccc3F)n2)O[C@@H]2CCC[C@]12O [Example 210, N-(4-((2R,4R,4aS,7aR)-4-amino-4a-hydroxyoctahydrocyclopenta[b]pyran-2-yl)pyridin-3-yl)-6-(2,6-difluorophenyl)-5-fluoropicolinamide]
2 | 6.3 | 5.8 |  |  | Nc1cnc(-c2c(F)cccc2F)nc1C(=O)Nc1cnccc1[C@H]1C[C@@H](N)[C@@]2(O)CCC[C@H]2O1 [Example 213, 5-amino-N-(4-((2R,4R,4aS,7aR)-4-amino-4a-hydroxyoctahydrocyclopenta[b]pyran-2-yl)pyridin-3-yl)-2-(2,6-difluorophenyl)pyrimidine-4-carboxamide]
3 |  |  | 0.09 | 1.4 | C[C@H]1O[C@@H](c2ccncc2NC(=O)c2ccc(F)c(-c3c(F)cccc3F)n2)C[C@@H](N)[C@]1(C)O [Example 219, N-(4-((2R,4R,5S,6R)-4-amino-5-hydroxy-5,6-dimethyltetrahydro-2H-pyran-2-yl)pyridin-3-yl)-6-(2,6-difluorophenyl)-5-fluoropicolinamide]
4 |  |  | 0.1 | 4.1 | N[C@@H]1C[C@H](c2ccncc2NC(=O)c2ccc(F)c(-c3c(F)cccc3F)n2)O[C@@H]2CCC[C@H]12 [Example 224, N-(4-((2R,4R,4aR,7aR)-4-aminooctahydrocyclopenta[b]pyran-2-yl)pyridin-3-yl)-6-(2,6-difluorophenyl)-5-fluoropicolinamide]
5 |  |  | 6.83 | 482 | N[C@H]1C[C@@H](c2ccncc2NC(=O)c2csc(-c3c(F)cccc3F)n2)O[C@H]2CCC[C@H]21 [Example 230, N-(4-((2S,4S,4aS,7aS)-4-aminooctahydrocyclopenta[b]pyran-2-yl)pyridin-3-yl)-2-(2,6-difluorophenyl)thiazole-4-carboxamide]
6 |  |  | 0.08 | 0.6 | Nc1cc(F)c(-c2c(F)cccc2F)nc1C(=O)Nc1cnccc1[C@H]1C[C@@H](N)[C@@]2(O)CCCC[C@H]2O1 [Example 238, 3-amino-N-(4-((2R,4R,4aS,8aR)-4-amino-4a-hydroxyoctahydro-2H-chromen-2-yl)pyridin-3-yl)-6-(2,6-difluorophenyl)-5-fluoropicolinamide]
7 |  |  | 0.04 | 0.8 | COc1cc(F)c(-c2nc(C(=O)Nc3cnccc3[C@H]3C[C@@H](N)[C@](C)(O)[C@@H](C)O3)ccc2F)c(F)c1 [Example 242, N-(4-((2R,4R,5S,6R)-4-amino-5-hydroxy-5,6-dimethyltetrahydro-2H-pyran-2-yl)pyridin-3-yl)-6-(2,6-difluoro-4-methoxyphenyl)-5-fluoropicolinamide]

The remaining lines, values behind:

Row | Compound | IC50 (PIM2) [nM] | IC50 (PIM3 [1]) [nM] | IC50 (PIM1) [nM] | IC50 (PIM3 [2]) [nM]
8 | C=C1[C@@H](O)C[C@@H](c2ccncc2NC(=O)c2nc(-c3ccccc3)cnc2N)OC12CC2 [Example 5, 3-amino-N-(4-((5S,7S)-7-hydroxy-8-methylene-4-oxaspiro[2.5]octan-5-yl)pyridin-3-yl)-6-phenylpyrazine-2-carboxamide] | 254 | 37.3 |  | 
9 | C[C@H]1O[C@@H](c2ccncc2NC(=O)c2nc(-c3ccccc3)ncc2N)C[C@@H](O)[C@]1(C)O [Example 32, 5-amino-N-(4-((2R,4R,5S,6R)-4,5-dihydroxy-5,6-dimethyltetrahydro-2H-pyran-2-yl)pyridin-3-yl)-2-phenylpyrimidine-4-carboxamide] | 44 | 3 |  | 
10 | Nc1ncc(-c2ccccc2)nc1C(=O)Nc1cnccc1[C@H]1C[C@@H](O)[C@H](O)[C@@H](CCl)O1 [Example 36, 3-amino-N-(4-((2R,4R,5S,6S)-6-(chloromethyl)-4,5-dihydroxytetrahydro-2H-pyran-2-yl)pyridin-3-yl)-6-phenylpyrazine-2-carboxamide] | 8 | 2 |  | 
11 | CC[C@H]1O[C@@H](c2ccncc2NC(=O)c2nc(-c3ccccc3)ncc2N)C[C@@H](O)[C@@H]1O [Example 39, 5-amino-N-(4-((2R,4R,5S,6R)-6-ethyl-4,5-dihydroxytetrahydro-2H-pyran-2-yl)pyridin-3-yl)-2-phenylpyrimidine-4-carboxamide] | 40 | 4 |  | 
12 | C[C@H]1O[C@@H](c2ccncc2NC(=O)c2nc(-c3ccccc3)cnc2N)[C@H](F)[C@@H](O)[C@]1(C)O [Example 58, 3-amino-N-(4-((2S,3R,4S,5S,6R)-3-fluoro-4,5-dihydroxy-5,6-dimethyltetrahydro-2H-pyran-2-yl)pyridin-3-yl)-6-phenylpyrazine-2-carboxamide] | 276 | 27 |  | 
13 | C[C@@H]1O[C@H](c2ccncc2NC(=O)c2nc(-c3ccccc3)cnc2N)[C@@H](F)[C@H](O)[C@@]1(C)O [Example 63, 3-amino-N-(4-((2R,3S,4R,5R,6S)-3-fluoro-4,5-dihydroxy-5,6-dimethyltetrahydro-2H-pyran-2-yl)pyridin-3-yl)-6-phenylpyrazine-2-carboxamide] | 924 | 31 |  | 
14 | C[C@H]1O[C@@H](c2ccncc2NC(=O)c2nc(-c3ccccc3)cnc2N)C[C@@H](O)[C@]1(C)O [Example 84, 3-amino-N-(4-((2R,4R,5S,6R)-4,5-dihydroxy-5,6-dimethyltetrahydro-2H-pyran-2-yl)pyridin-3-yl)-6-phenylpyrazine-2-carboxamide] | 33 | 3 |  | 
15 | C[C@@H]1O[C@H](c2ccncc2NC(=O)c2nc(-c3ccccc3)cnc2N)C[C@H](O)[C@@]1(C)O [Example 86, 3-amino-N-(4-((2S,4S,5R,6S)-4,5-dihydroxy-5,6-dimethyltetrahydro-2H-pyran-2-yl)pyridin-3-yl)-6-phenylpyrazine-2-carboxamide] | 164 | 15 |  | 
16 | CC[C@]1(O)[C@H](O)C[C@H](c2ccncc2NC(=O)c2nc(-c3c(F)cccc3F)ncc2N)O[C@@H]1C [Example 143, 5-amino-2-(2,6-difluorophenyl)-N-(4-((2R,4R,5S,6R)-5-ethyl-4,5-dihydroxy-6-methyltetrahydro-2H-pyran-2-yl)pyridin-3-yl)pyrimidine-4-carboxamide] | 3.5 | 2.4 |  | 
17 | Nc1ncc(-c2ccccc2)nc1C(=O)Nc1cnccc1[C@H]1C[C@@H](O)[C@@]2(O)CCCC[C@H]2O1 [Example 173, 3-amino-N-(4-((2R,4R,4aS,8aR)-4,4a-dihydroxyoctahydro-2H-chromen-2-yl)pyridin-3-yl)-6-phenylpyrazine-2-carboxamide] | 15.7 | 3.6 |  | 
18 | Nc1ncc(-c2ccccc2)nc1C(=O)Nc1cnccc1[C@@H]1C[C@H](O)[C@]2(O)CCCC[C@@H]2O1 [Example 176, 3-amino-N-(4-((2S,4S,4aR,8aS)-4,4a-dihydroxyoctahydro-2H-chromen-2-yl)pyridin-3-yl)-6-phenylpyrazine-2-carboxamide] | 1820 | 202 |  | 
19 | O=C(Nc1cnccc1[C@H]1C[C@@H](O)[C@@]2(O)CCCC[C@H]2O1)c1c[nH]cc(-c2ccccc2)c1=O [Example 178, N-(4-((2R,4R,4aS,8aR)-4,4a-dihydroxyoctahydro-2H-chromen-2-yl)pyridin-3-yl)-4-oxo-5-phenyl-1,4-dihydropyridine-3-carboxamide] | 2180 | 124 |  | 
20 | Nc1ncc(-c2ccccc2)nc1C(=O)Nc1cnccc1[C@@H]1C[C@H](O)[C@]2(O)CCC[C@@H]2O1 [Example 186, 3-amino-N-(4-((2S,4S,4aR,7aS)-4,4a-dihydroxyoctahydrocyclopenta[b]pyran-2-yl)pyridin-3-yl)-6-phenylpyrazine-2-carboxamide] | 3190 | 610 |  | 
21 | Nc1ncc(-c2ccccc2)nc1C(=O)Nc1cnccc1[C@H]1C[C@@H](O)[C@@]2(O)CCC[C@H]2O1 [Example 195, 3-amino-N-(4-((2R,4R,4aS,7aR)-4,4a-dihydroxyoctahydrocyclopenta[b]pyran-2-yl)pyridin-3-yl)-6-phenylpyrazine-2-carboxamide] | 12.1 | 3.2 |  | 
22 | O=C1CC[C@H]2O[C@@H](c3ccncc3NC(=O)c3ccc(F)c(-c4c(F)cccc4F)n3)C[C@@H](O)[C@@H]2N1 [Example 196, 6-(2,6-difluorophenyl)-5-fluoro-N-(4-((2R,4R,4aS,8aR)-4-hydroxy-6-oxooctahydro-2H-pyrano[3,2-b]pyridin-2-yl)pyridin-3-yl)picolinamide] | 10.8 | 3.6 |  | 
